Values after ≈ are worked out from the molar mass of the structure shown. Where two headings read alike, the source gives them in different places.
Key:
M. avium 11 = experiment: microbe, parasite or virus in culture; type: cell-based; conditions: Mycobacterium avium, 11, 96 h
[1] = test system: M. intracellulare ATCC 13950; experiment: microbe, parasite or virus in culture; type: cell-based; conditions: Mycobacterium intracellulare, ATCC13950, 96 h
M. abscessus Bamboo [2] = experiment: microbe, parasite or virus in culture; type: cell-based, Mycobacterium abscessus; conditions: Mycobacteroides abscessus
[3] = test system: M. abscessus subsp. abscessus ATCC 19977; experiment: microbe, parasite or virus in culture; type: cell-based, Mycobacterium abscessus; conditions: Mycobacteroides abscessus
[4] = test system: M. abscessus subsp. massiliense CCUG 48898T; experiment: microbe, parasite or virus in culture; type: cell-based, Mycobacterium abscessus; conditions: Mycobacteroides abscessus, 72 h
[5] = test system: M. abscessus subsp. bolletii CCUG 50184T; experiment: microbe, parasite or virus in culture; type: cell-based, Mycobacterium abscessus; conditions: Mycobacteroides abscessus, 72 h
[6] = test system: M. abscessus subsp. abscessus M9; experiment: microbe, parasite or virus in culture; type: cell-based, Mycobacterium abscessus; conditions: Mycobacteroides abscessus, 72 h
[7] = test system: M. abscessus subsp. abscessus M199; experiment: microbe, parasite or virus in culture; type: cell-based, Mycobacterium abscessus; conditions: Mycobacteroides abscessus, 72 h
[8] = test system: M. abscessus subsp. abscessus M337; experiment: microbe, parasite or virus in culture; type: cell-based, Mycobacterium abscessus; conditions: Mycobacteroides abscessus, 72 h
[9] = test system: M. abscessus subsp. abscessus M404; experiment: microbe, parasite or virus in culture; type: cell-based, Mycobacterium abscessus; conditions: Mycobacteroides abscessus, 72 h
[10] = test system: M. abscessus subsp. abscessus M422; experiment: microbe, parasite or virus in culture; type: cell-based, Mycobacterium abscessus; conditions: Mycobacteroides abscessus, 72 h
[11] = test system: M. abscessus subsp. bolletii M232; experiment: microbe, parasite or virus in culture; type: cell-based, Mycobacterium abscessus; conditions: Mycobacteroides abscessus, 72 h
[12] = test system: M. abscessus subsp. bolletii M506; experiment: microbe, parasite or virus in culture; type: cell-based, Mycobacterium abscessus; conditions: Mycobacteroides abscessus, 72 h
[13] = test system: M. abscessus subsp. massiliense M111; experiment: microbe, parasite or virus in culture; type: cell-based, Mycobacterium abscessus; conditions: Mycobacteroides abscessus, 72 h
[14] = test system: M. abscessus subsp. abscessus K21; experiment: microbe, parasite or virus in culture; type: cell-based, Mycobacterium abscessus; conditions: Mycobacteroides abscessus, 72 h
M. abscessus Bamboo [15] = experiment: MIC and MBC determination in culture tubes (planktonic); type: cell-based, Mycobacterium abscessus; conditions: for MBC: 10-fold reduction in CFU/ml vs day 0; for MIC: 48 h, day 2
[16] = test system: M. abscessus Bamboo biofilms; experiment: Biofilm growth inhibition assay (biofilm MIC and MBC); type: cell-based, Mycobacterium abscessus; conditions: Mycobacteroides abscessus, Biofilm, M. abscessus Bamboo; for MBC: 10-fold reduction of CFU/peg vs 24 h; for MIC: 90% reduction of CFU/peg relative to drug-free biofilm growth, 48 h
Description: The biofilm growth inhibition assay was performed as previously described ([52]). Innovotech MBEC 96-well Biofilm Assay Plates (Innovotech 19111, Edmonton, AB, Alberta, Canada) were used, and the supplier’s manual was followed with minor modifications. Midlog phase M. abscessus Bamboo precultures (OD600 = 0.4–0.6) were spun down at 3,200 × g for 10 min at 25°C and washed with 7H9 medium without Tween 80 (7H9nt). Bacteria were resuspended into 25 ml 7H9nt to an OD600 = 0.0125 (1.0 × 10^6 CFU/ml). 150 μl of bacteria suspension was dispensed into each well of MBEC multititer plates and the polystyrene protrusions (pegs) of the MBEC lid were inserted into the culture-containing wells for 24 h at 37°C on an orbital shaker at 110 rpm to allow attachment of the bacteria to the pegs and initiation of biofilm growth. The lids with the pegs (now with 1-day-old biofilms) were transferred to new MBEC multititer plates containing 150 μl of fresh 7H9nt medium per well without bacteria (0 h time point). After that, the lids with biofilm-laden pegs were transferred once a day to a new multititer plate containing fresh 7H9nt medium. To measure growth of the biofilm formed on the peg, the pegs were washed in 200 μl of 7H9nt medium before they were aseptically removed and placed in 1.7 ml microcentrifuge tubes (VWR 87003-294, Rador, PA, United States) containing 500 μl PBS/Tween 80. The microcentrifuge tubes were vigorously vortexed at 2,000 rpm for 90 s at 25°C to detach the bacteria from the pegs before samples were serially diluted and plated for the determination of CFU/peg. […] The average drug-free biofilm growth was calculated by subtracting the average 24 h CFU/peg value from the average 72 h CFU/peg value for the untreated control pegs. The biofilm MIC was defined as the lowest drug concentration that reduced the CFU/peg by 90% relative to the average drug-free biofilm growth.

[17] = test system: anaerobic, nonreplicating M. abscessus Bamboo; experiment: MBC determination under anaerobic conditions; type: cell-based, Mycobacterium abscessus; conditions: Mycobacteroides abscessus, 48 h drug exposure
[18] = test system: nutrient-starved, nonreplicating M. abscessus Bamboo; experiment: MBC determination under nutrient-starved conditions; type: cell-based, Mycobacterium abscessus; conditions: Mycobacteroides abscessus, 48 h drug exposure
Description: The determination of drug bactericidal activity against nutrient-starved M. abscessus cultures was performed as previously described ([52]). […] Washed culture was then diluted with PBS/Tyloxapol to OD600 = 0.2 (1.8 × 10^7 CFU/ml). […] Appropriate concentrations of drugs up to 100 μM were added to the tubes prior to incubation at 37°C on a tilted rack in an orbital shaker at 220 rpm.

[19] = test system: M. abscessus Bamboo RM1 (GyrA M129K); experiment: microbe, parasite or virus in culture; type: cell-based, Mycobacterium abscessus; conditions: Mycobacteroides abscessus
[20] = test system: M. abscessus Bamboo RM2 (GyrA D91N); experiment: microbe, parasite or virus in culture; type: cell-based, Mycobacterium abscessus; conditions: Mycobacteroides abscessus
[21] = test system: M. abscessus Bamboo RM3 (GyrA D91N); experiment: microbe, parasite or virus in culture; type: cell-based, Mycobacterium abscessus; conditions: Mycobacteroides abscessus
[22] = test system: M. abscessus Bamboo RM4 (GyrA D91G); experiment: microbe, parasite or virus in culture; type: cell-based, Mycobacterium abscessus; conditions: Mycobacteroides abscessus
[23] = test system: M. abscessus ATCC 19977 MXF_R1 (GyrA D96Y); experiment: microbe, parasite or virus in culture; type: cell-based, Mycobacterium abscessus
[24] = test system: M. abscessus ATCC 19977 MXF_R2 (GyrA D96N); experiment: microbe, parasite or virus in culture; type: cell-based, Mycobacterium abscessus
[25] = test system: M. abscessus ATCC 19977 MXF_R3 (GyrA D96G); experiment: microbe, parasite or virus in culture; type: cell-based, Mycobacterium abscessus
[26] = test system: M. abscessus subsp. abscessus K21; experiment: M. abscessus mouse infection model; type: in vivo, Mycobacterium abscessus; conditions: NOD SCID mice, intranasal infection
Description: In vivo efficacy determinations were carried out as described previously, using 8-week-old female NOD.CB17-Prkdc^scid/NCrCrl (NOD SCID) mice (Charles River Laboratories) and the M. abscessus subsp. abscessus K21 strain ([48]). Briefly, anesthetized animals were infected by intranasal delivery of ∼10^6 CFU of M. abscessus subsp. abscessus K21. Acute infection was achieved within 1 day. Drugs or the vehicle control was administered to NOD SCID mice once daily for 10 consecutive days by oral gavage, starting from 1 day postinfection. Clarithromycin was formulated in 0.4% methyl cellulose–sterile water and administered at a dose of 250 mg/kg. […] EC/11716 was formulated in 0.4% methyl cellulose–sterile water and administered at 400 mg/kg. All mice were euthanized 24 h after the last dose (11 days postinfection), and their lungs and spleen were aseptically removed prior to homogenization. The bacterial load in these organs was determined by plating serial dilutions of the organ homogenates onto Middlebrook 7H11 agar (BD Difco) supplemented with 0.2% (vol/vol) glycerol and 10% (vol/vol) OADC. The agar plates were incubated for 5 days at 37°C prior to counting of colonies. All studies were conducted in accordance with the GSK Policy on the Care, Welfare and Treatment of Laboratory Animals and were reviewed the Institutional Animal Care and Use Committee either at GSK or by the ethical review process at the institution where the work was performed. All experiments involving live animals were approved by the Institutional Animal Care and Use Committee of the Center for Discovery and Innovation, Hackensack Meridian Health.

[27] = test system: M. tuberculosis H37Rv ATCC 27294; experiment: microbe, parasite or virus in culture; type: cell-based; conditions: Mycobacterium tuberculosis, 168 h
[28] = Mycobacteroides abscessus, ATCC19977

CC[C@H]1OC(=O)[C@H](C)[C@@H](O[C@H]2C[C@@](C)(OC)[C@@H](O)[C@H](C)O2)[C@H](C)[C@@H](O[C@@H]2O[C@H](C)C[C@H](N(C)C)[C@H]2O)[C@](C)(OC)C[C@@H](C)C(=O)[C@H](C)[C@@H](O)[C@]1(C)O [CLR, clarithromycin]
MIC (M. avium 11): 0.3 µM (≈ 0.224 µg/mL) | MIC [1]: 0.15 µM (≈ 0.112 µg/mL) | MIC (M. abscessus Bamboo [2]): 0.33 µM (≈ 0.247 µg/mL) | MIC (M. abscessus Bamboo [2]; 72 h): 0.23 µM (≈ 0.172 µg/mL) | MIC ([3]; ATCC19977): 1.2 µM (≈ 0.898 µg/mL) | MIC ([3]; ATCC19977, 72 h): 0.9 µM (≈ 0.673 µg/mL) | MIC [4]: 0.19 µM (≈ 0.142 µg/mL) | MIC [5]: 2.5 µM (≈ 1.87 µg/mL) | MIC [6]: 0.73 µM (≈ 0.546 µg/mL) | MIC [7]: 2.7 µM (≈ 2.02 µg/mL) | MIC [8]: 0.9 µM (≈ 0.673 µg/mL) | MIC [9]: 0.2 µM (≈ 0.15 µg/mL) | MIC [10]: 0.65 µM (≈ 0.486 µg/mL) | MIC [11]: 0.95 µM (≈ 0.711 µg/mL) | MIC [12]: 0.28 µM (≈ 0.209 µg/mL) | MIC [13]: 0.24 µM (≈ 0.18 µg/mL) | MIC [14]: 0.4 µM (≈ 0.299 µg/mL) | MBC (M. abscessus Bamboo [15]): >100 µM | MBC (M. abscessus Bamboo [15]; Mycobacteroides abscessus, 0 h): > 100 µM | MIC (M. abscessus Bamboo [15]; Mycobacteroides abscessus): 0.28 µM (≈ 0.209 µg/mL) | MBC [16]: > 100 µM | MIC [16]: 1.6 µM (≈ 1.2 µg/mL) | MBC [17]: > 100 µM | MBC [18]: > 100 µM | MIC [19]: 0.24 µM (≈ 0.18 µg/mL) | MIC [20]: 0.29 µM (≈ 0.217 µg/mL) | MIC [21]: 0.27 µM (≈ 0.202 µg/mL) | MIC [22]: 0.26 µM (≈ 0.194 µg/mL) | MIC [23, 28]: 1.5 µM (≈ 1.12 µg/mL) | MIC [24, 28]: 0.73 µM (≈ 0.546 µg/mL) | MIC [25, 28]: 0.34 µM (≈ 0.254 µg/mL) | reduction in lung CFU ([26]; 250 mg/kg oral once daily for 10 days, EC/11716 reduction stated on par with it): ~1 log

COc1c(N2C[C@@H]3CCCN[C@@H]3C2)c(F)cc2c(=O)c(C(=O)O)cn(C3CC3)c12 [MXF, moxifloxacin]
MIC [27]: 0.6 µM (≈ 0.241 µg/mL) | MIC (M. avium 11): 1.3 µM (≈ 0.522 µg/mL) | MIC [1]: 0.4 µM (≈ 0.161 µg/mL) | MIC (M. abscessus Bamboo [2]): 5.4 µM (≈ 2.17 µg/mL) | MIC (M. abscessus Bamboo [2]; 72 h): 4.6 µM (≈ 1.85 µg/mL) | MIC ([3]; ATCC19977): 3.6 µM (≈ 1.45 µg/mL) | MIC ([3]; ATCC19977, 72 h): 3.6 µM (≈ 1.45 µg/mL) | MIC [4]: 8 µM (≈ 3.21 µg/mL) | MIC [5]: 6.3 µM (≈ 2.53 µg/mL) | MIC [6]: 2.9 µM (≈ 1.16 µg/mL) | MIC [7]: 4.8 µM (≈ 1.93 µg/mL) | MIC [8]: 2.9 µM (≈ 1.16 µg/mL) | MIC [9]: 5 µM (≈ 2.01 µg/mL) | MIC [10]: 2.7 µM (≈ 1.08 µg/mL) | MIC [11]: 3.2 µM (≈ 1.28 µg/mL) | MIC [12]: 7.1 µM (≈ 2.85 µg/mL) | MIC [13]: 6.7 µM (≈ 2.69 µg/mL) | MIC [14]: 7.3 µM (≈ 2.93 µg/mL) | MBC (M. abscessus Bamboo [15]; Mycobacteroides abscessus, 0 h): 3.1 µM (≈ 1.24 µg/mL) | MIC (M. abscessus Bamboo [15]; Mycobacteroides abscessus): 1.9 µM (≈ 0.763 µg/mL) | MBC [16]: 25 µM (≈ 10 µg/mL) | MIC [16]: 6 µM (≈ 2.41 µg/mL) | MIC [19]: 20 µM (≈ 8.03 µg/mL) | MIC [20]: 42 µM (≈ 16.9 µg/mL) | MIC [21]: 47 µM (≈ 18.9 µg/mL) | MIC [22]: 27 µM (≈ 10.8 µg/mL) | MIC [23]: >100 µM | MIC [23, 28]: > 50 µM | MIC [24]: 68 µM (≈ 27.3 µg/mL) | MIC [24, 28]: > 50 µM | MIC [25]: 54 µM (≈ 21.7 µg/mL) | MIC [25, 28]: > 50 µM | reduction in lung CFU burden ([26]; 200 mg/kg oral once daily for 10 days, not statistically significant): 0.6 log

CO[C@H]1/C=C/O[C@@]2(C)Oc3c(C)c(O)c4c(O)c(c(/C=N/N5CCN(C)CC5)c(O)c4c3C2=O)NC(=O)/C(C)=C\C=C\[C@H](C)[C@H](O)[C@@H](C)[C@@H](O)[C@@H](C)[C@H](OC(C)=O)[C@@H]1C [rifampin]
MIC [27]: 0.66 µM (≈ 0.543 µg/mL)
